Values of other authors as cited in patent publication US7541158B2, “Taste receptors of the T1R family from domestic dog” (Monell Chemical Senses Center, priority 2004, dated 2009).

Tests used:
dog = conditions: neurophysiological studies; mono- and disaccharides and sweeteners
dog taste nerve fibers = conditions: for response of dog taste nerve fibers that respond to sucrose: sucrose-responsive fibers

Structure (SMILES) | taste response activity in the dog (dog) | taste quality perceived by dog (domestic dog) | response of dog taste nerve fibers fired by saccharin (dog taste nerve fibers; saccharin-responsive fibers) | response of dog taste nerve fibers that respond to sucrose (dog taste nerve fibers) | behavioral preference (domestic dog; behavior said to be congenital)
O=C(CO)[C@@H](O)[C@H](O)[C@H](O)CO [D-fructose] | Particularly active |  |  |  | 
O=C1NS(=O)(=O)c2ccccc21 [saccharin] |  | bitter | fired | no response | 
OC[C@H]1O[C@@](CO)(O[C@H]2O[C@H](CO)[C@@H](O)[C@H](O)[C@H]2O)[C@@H](O)[C@@H]1O [sucrose] | Particularly active |  |  | responded | shows a preference
OC[C@H]1O[C@](O)(CO)[C@@H](O)[C@@H]1O [β-D-fructose] | Particularly active |  |  |  | 
